Our source for the IC50 values is patent US8685977B2, “Chemical compounds” (Pfizer Limited, priority 2010, dated 2014).

Molecules are shown by their SMILES. pIC50: −log10 of the molar value.

T1 sequence (Q15858 whole entry): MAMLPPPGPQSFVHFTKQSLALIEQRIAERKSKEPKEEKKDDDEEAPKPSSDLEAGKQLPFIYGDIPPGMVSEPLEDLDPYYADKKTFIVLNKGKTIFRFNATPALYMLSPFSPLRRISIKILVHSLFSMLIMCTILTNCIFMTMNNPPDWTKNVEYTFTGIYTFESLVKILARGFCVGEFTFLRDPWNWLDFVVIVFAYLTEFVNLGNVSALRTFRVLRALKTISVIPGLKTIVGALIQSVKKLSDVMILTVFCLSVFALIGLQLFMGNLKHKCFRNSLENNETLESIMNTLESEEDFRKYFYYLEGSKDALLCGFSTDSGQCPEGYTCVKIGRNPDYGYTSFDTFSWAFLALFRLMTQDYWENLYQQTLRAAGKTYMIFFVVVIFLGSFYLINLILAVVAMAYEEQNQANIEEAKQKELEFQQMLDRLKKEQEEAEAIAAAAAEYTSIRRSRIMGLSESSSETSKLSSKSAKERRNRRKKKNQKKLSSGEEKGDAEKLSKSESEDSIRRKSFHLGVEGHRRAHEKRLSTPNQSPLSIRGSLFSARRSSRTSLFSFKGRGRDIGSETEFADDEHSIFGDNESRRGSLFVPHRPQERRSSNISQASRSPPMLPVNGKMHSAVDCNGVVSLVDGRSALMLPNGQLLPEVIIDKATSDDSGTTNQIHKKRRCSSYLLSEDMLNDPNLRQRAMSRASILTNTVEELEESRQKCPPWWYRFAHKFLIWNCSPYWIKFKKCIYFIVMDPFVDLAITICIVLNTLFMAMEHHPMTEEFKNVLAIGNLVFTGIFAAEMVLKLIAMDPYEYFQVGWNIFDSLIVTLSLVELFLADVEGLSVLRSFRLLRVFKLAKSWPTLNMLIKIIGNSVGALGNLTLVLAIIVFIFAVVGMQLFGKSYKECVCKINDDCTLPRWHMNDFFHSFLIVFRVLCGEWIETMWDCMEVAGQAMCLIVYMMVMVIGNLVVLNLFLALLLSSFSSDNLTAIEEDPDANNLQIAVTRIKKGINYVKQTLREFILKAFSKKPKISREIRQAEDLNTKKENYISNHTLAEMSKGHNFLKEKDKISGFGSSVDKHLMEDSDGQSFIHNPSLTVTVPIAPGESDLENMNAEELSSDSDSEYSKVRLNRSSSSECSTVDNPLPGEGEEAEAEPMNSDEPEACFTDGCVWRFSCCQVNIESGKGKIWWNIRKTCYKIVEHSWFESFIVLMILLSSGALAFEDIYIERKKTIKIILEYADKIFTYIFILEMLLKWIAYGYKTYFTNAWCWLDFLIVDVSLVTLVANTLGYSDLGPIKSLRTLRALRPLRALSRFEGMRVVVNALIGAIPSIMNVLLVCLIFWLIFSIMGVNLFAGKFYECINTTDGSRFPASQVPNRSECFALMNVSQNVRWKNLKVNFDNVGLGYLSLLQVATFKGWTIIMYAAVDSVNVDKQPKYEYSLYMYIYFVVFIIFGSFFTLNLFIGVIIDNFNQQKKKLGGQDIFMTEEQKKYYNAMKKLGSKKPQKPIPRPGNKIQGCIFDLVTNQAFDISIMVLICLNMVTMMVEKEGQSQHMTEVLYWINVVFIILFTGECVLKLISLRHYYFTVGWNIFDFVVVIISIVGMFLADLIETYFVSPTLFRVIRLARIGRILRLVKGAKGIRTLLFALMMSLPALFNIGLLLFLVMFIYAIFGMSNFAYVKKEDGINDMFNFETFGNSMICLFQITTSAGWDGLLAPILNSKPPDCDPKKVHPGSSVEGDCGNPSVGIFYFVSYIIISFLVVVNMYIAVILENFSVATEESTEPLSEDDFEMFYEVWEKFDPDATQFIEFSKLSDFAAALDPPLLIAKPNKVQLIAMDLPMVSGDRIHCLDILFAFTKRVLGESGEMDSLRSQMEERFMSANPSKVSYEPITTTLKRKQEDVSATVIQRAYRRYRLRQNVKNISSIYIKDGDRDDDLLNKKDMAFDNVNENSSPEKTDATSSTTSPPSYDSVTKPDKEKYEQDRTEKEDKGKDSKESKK

The first assay addresses T1, Nav1.7 (or SCN9A) channel (Homo sapiens, UniProt Q15858).
T1 construct: expressed in transfected cells
Description: Nav1.7 PatchXpress 7000 automated electrophysiology assay (HEK cells stably expressing hSCN9A). The class given is cell-based. Conditions: voltage-clamped at V1/2 of inactivation, read-out: Nav1.7 EIC50. The method in brief:
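Automated whole-cell clamp (PatchXpress) of HEK cells stably expressing hSCN9A, at 22-24 °C, in extracellular buffer at pH 7.4. Cells were held at the measured V1/2 of inactivation, then stepped to 0 mV for 20 ms. Single-concentration % inhibition gave EIC50 = concentration × (100 − %inhibition)/%inhibition, excluding <20% or >80%.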
As to `CCOc1cc(C)ccc1Oc1cc(F)c(C(=O)NS(C)(=O)=O)cc1F` [Example 148, 4-(2-ethoxy-4-methylphenoxy)-2,5-difluoro-N-(methylsulfonyl)benzamide], the pIC50 is under 6.00.

On to `COc1cccc(Oc2ccc(C(=O)NS(C)(=O)=O)cc2)c1` [Example 161, 4-(3-methoxyphenoxy)-N-(methylsulfonyl)benzamide], for which the pIC50 was 4.55.

Regarding `COc1cc(Cl)ccc1Oc1cc(F)c(C(=O)NS(C)(=O)=O)cc1F` [Example 47, 4-(4-chloro-2-methoxyphenoxy)-2,5-difluoro-N-(methylsulfonyl)benzamide], the pIC50 was 5.40.

In the case of `CCC(C)S(=O)(=O)NC(=O)c1cc(F)c(Oc2ccc(Cl)c(C(F)(F)F)c2)cc1F` (stereo not drawn) [Example 58, N-(sec-butylsulfonyl)-4-[4-chloro-3-(trifluoromethyl)phenoxy]-2,5-difluorobenzamide], the pIC50 was 6.37.

On to `CS(=O)(=O)NC(=O)c1ccc(Oc2ccc(C#N)c(C(F)(F)F)c2)cc1` [Example 310, 4-[4-cyano-3-(trifluoromethyl)phenoxy]-N-(methylsulfonyl)benzamide], for which the pIC50 was 5.48.

As to `COc1cc(Oc2ccc(F)c(Cl)c2)ccc1C(=O)NS(C)(=O)=O` [Example 233, 4-(3-chloro-4-fluorophenoxy)-2-methoxy-N-(methylsulfonyl)benzamide], the pIC50 was 5.09.

For another assay, the target named is T1, Nav1.7 (or SCN9A) channel. Description: Nav1.7 Ionworks Quattro automated electrophysiology assay (HEK cells expressing hSCN9A). The class given is cell-based. Conditions: Ionworks assay (IW), read-out: Nav1.7 EIC50 (IW). On the procedure: The ability of the compounds of formula (I) to block the Nav1.7 (or SCN9A) channel was measured using the assays described below. Human Embryonic Kidney (HEK) cells were transfected with an hSCN9A construct using lipofectamine reagent (Invitrogen), using standard techniques. Cells stably expressing the hSCN9A constructs were identified by their resistance to G-418 (400 μg/ml). Clones were screened for expression using the whole-cell voltage-clamp technique. HEK cells stably transfected with hSCN9A were maintained in DMEM medium supplemented with 10% heat-inactivated fetal bovine serum and 400 μg/ml G-418 in an incubator at 37° C. with a humidified atmosphere of 10% CO2. For HTS, cells were harvested from flasks by trypsinization and replated in an appropriate multi-well plate (typically 96 or 384 wells/plate) such that confluence would be achieved within 24 hours of plating. For electrophysiological studies, cells were removed from the culture flask by brief trypsinization and re-plated at low density onto glass cover slips. Cells were typically used for electrophysiological experiments within 24 to 72 hours after plating. Electrophysiological assays were also conducted using the lonworks Quattro automated electrophysiological platform (Molecular Devices Corp). Intracellular and extracellular solutions were as described above with the following changes, 100 μg/ml amphotericin was added to the intracellular solution to perforate the membrane and allow electrical access to the cells. hSCN9A cells were grown and harvested as for PatchXpress and cells were resuspended in extracellular solution at a concentration of 3−4×10^6 cells/ml. The onboard liquid handling facility of the lonworks Quattro was used for dispensing cells and application of test compounds. A voltage protocol was then applied that comprised of a voltage step to fully inactivate the sodium channels, followed by a brief hyperpolarized recovery period to allow partial recovery from inactivation for unblocked sodium channels, followed by a test depolarized voltage step to assess magnitude of inhibition by test compound. Compound effect was determined based on current amplitude difference between the pre-compound addition and post-compound addition scans. Compounds of the Examples were tested in the assays described above and found to have the Nav1.7 EIC50 (μM) values specified in the table below. All data are derived from the PatchXpress assay unless explicitly stated otherwise.
Background: The patch-clamp technique gives a direct electrical read-out from membranes.
For `CS(=O)(=O)NC(=O)c1ccc(Oc2cc(C(F)(F)F)ccc2Cl)cc1` [Example 207, 4-[2-chloro-5-(trifluoromethyl)phenoxy]-N-(methylsulfonyl)benzamide], the pIC50 was 4.86.

Take `CCOc1ccccc1Oc1ccc(C(=O)NS(C)(=O)=O)cc1C#N` [Example 273, 3-cyano-4-(2-ethoxyphenoxy)-N-(methylsulfonyl)benzamide]: the pIC50 is 4.35.

As for `COc1cc(C(=O)NS(C)(=O)=O)ccc1Oc1ccc(F)c(C(F)(F)F)c1` [Example 241, 4-[4-fluoro-3-(trifluoromethyl)phenoxy]-3-methoxy-N-(methylsulfonyl)benzamide], the pIC50 was 3.84.

Turning to `Cc1ccccc1Oc1ccc(C(=O)NS(C)(=O)=O)cc1C#N` [Example 275, 3-cyano-4-(2-methylphenoxy)-N-(methylsulfonyl)benzamide], the pIC50 was 3.94.

`CS(=O)(=O)NC(=O)c1ccc(Oc2ccc(C(F)(F)F)cc2)cc1C#N` [Example 243, 2-cyano-N-(methylsulfonyl)-4-[4-(trifluoromethyl)phenoxy]benzamide]: the pIC50 is 4.92.

In the case of `CCOc1cccc(Oc2ccc(C(=O)NS(C)(=O)=O)cc2)c1` [Example 259, 4-(3-ethoxyphenoxy)-N-(methylsulfonyl)benzamide], the pIC50 was under 3.49.

Regarding `CS(=O)(=O)NC(=O)c1cc(F)c(Oc2ccccc2C#N)cc1F` [Example 327, 4-(2-cyanophenoxy)-2,5-difluoro-N-(methylsulfonyl)benzamide], the pIC50 was under 3.49.

For `COc1c(C(=O)NS(C)(=O)=O)ccc(Oc2ccc(C)cc2)c1F` [Example 226, 3-fluoro-2-methoxy-4-(4-methylphenoxy)-N-(methylsulfonyl)benzamide], the pIC50 is 3.52.

Take `CS(=O)(=O)NC(=O)c1ccc(Oc2ccc(F)c(C(F)(F)F)c2)cc1` [Example 208, 4-[4-fluoro-3-(trifluoromethyl)phenoxy]-N-(methylsulfonyl)benzamide]: the pIC50 was 4.73.

On to `CS(=O)(=O)NC(=O)c1ccc(Oc2ccccc2C(F)(F)F)c(C#N)c1` [Example 271, 3-cyano-N-(methylsulfonyl)-4-[2-(trifluoromethyl)phenoxy]benzamide], for which the pIC50 was under 3.49.

For the compound `CS(=O)(=O)NC(=O)c1ccc(Oc2ccccc2OC(F)(F)F)cc1` [Example 209, N-(methylsulfonyl)-4-[2-(trifluoromethoxy)phenoxy]benzamide], the pIC50 was 4.55.

In the case of `COc1c(C(=O)NS(C)(=O)=O)ccc(Oc2ccc(Cl)c(F)c2)c1F` [Example 221, 4-(4-chloro-3-fluorophenoxy)-3-fluoro-2-methoxy-N-(methylsulfonyl)benzamide], the pIC50 is 3.52.

Regarding `CS(=O)(=O)NC(=O)c1cc(Cl)c(Oc2ccccc2Cl)cc1F` [Example 300, 5-chloro-4-(2-chlorophenoxy)-2-fluoro-N-(methylsulfonyl)benzamide], the pIC50 is 5.41.

Regarding `COc1ccc(Oc2cc(F)c(C(=O)NS(C)(=O)=O)cc2Cl)cc1` [Example 301, 5-chloro-2-fluoro-4-(4-methoxyphenoxy)-N-(methylsulfonyl)benzamide], the pIC50 was 4.21.

On to `COc1cc(Oc2ccc(Cl)cc2)ccc1C(=O)NS(C)(=O)=O` [Example 235, 4-(4-chlorophenoxy)-2-methoxy-N-(methylsulfonyl)benzamide], for which the pIC50 is 4.44.

With `CS(=O)(=O)NC(=O)c1ccc(Oc2cccc(C(F)(F)F)c2Cl)cc1` [Example 210, 4-[2-chloro-3-(trifluoromethyl)phenoxy]-N-(methylsulfonyl)benzamide], the pIC50 is 3.54.

Turning to `CS(=O)(=O)NC(=O)c1ccc(Oc2ccccc2C#N)cc1` [Example 211, 4-(2-cyanophenoxy)-N-(methylsulfonyl)benzamide], the pIC50 was 4.17.

As to `COc1ccc(Oc2ccc(C(=O)NS(C)(=O)=O)cc2C#N)cc1` [Example 274, 3-cyano-4-(4-methoxyphenoxy)-N-(methylsulfonyl)benzamide], the pIC50 is 3.56.
